Source: patent US20260317304A1, “TEAD INHIBITORS AND METHODS OF USE” (Sporos BioDiscovery, Inc., priority 2022, published 2026)

Tests used:
Type in all cases: cell-based
LOU-NH91 cells = assay: LOU-NH91 proliferation and cell viability assay (CTG); settings: 216 hours
Description: LOU-NH91 cells were trypsinised, counted and plated at 1000 cells/well in 200 μl of growth media in 96 well flat bottom tissue culture treated plates. The plated cells were incubated overnight at 37° C., 5% CO2 before being treated with compounds in triplicate for each assay point. 50 μl of the serially diluted compound was added to each well giving a final DMSO concentration of 0.5% per well and a total volume of 250 μl per well. The treated cells were incubated for 216 hours (9 days) at 37° C., 5% CO2. Following compound treatment, the remaining viable cells were detected using the Promega CellTiter-Glo 2.0 assay as follows: 150 μl of media was removed from each of the wells to be assayed and 100 μl of room temperature CellTiter-Glo 2.0 reagent was added. The plate was placed on an orbital shaker at 500 rpm at room temperature for 2 minutes, and then incubated without shaking for a further 10 minutes at room temperature. 150 μl of cell lysate was removed from each well and dispensed into a single well of a white opaque 96 well plate. Luminescence at 545 nm was read using a BMG CLARIOstar plate reader. The luminescent signal was directly proportional to number of viable cells, the percent of viable cells relative to the DMSO control was then calculated for each assay point. Percent viability relative to DMSO control was plotted against compound concentration and a curve fitted with non-linear regression in GraphPad Prism software. EC50 and absolute IC50 values were calculated using GraphPad Prism software as follows: For EC50 values a non-constrained four-parameter logistic curve fit was used (Sigmoidal, 4PL, X is concentration). For Absolute IC50 values the baseline was constrained to Y=0 and top at 100 (Absolute IC50, X is concentration). Area Under the Curve (AUC): Prism computes area-under-the-curve by the trapezoidal method. The analysis sees a fitted curve as simply a series of connected XY points. Prism simply computes the area under the “curve” defined by connecting the points by straight lines. The units of the AUC are the units of the Y axis times units of the X axis. […]

MSTO-211H cells = assay: MSTO-211H proliferation and cell viability assay (CTG); settings: Homo sapiens, 144 hours
Description: MSTO-211H cells were trypsinised, counted and plated at 1500 cells/well in 200 μl of growth media in 96 well flat bottom tissue culture treated plates. The plated cells were incubated overnight at 37° C., 5% CO2 before being treated with compounds in triplicate for each assay point. 50 μl of the serially diluted compound was added to each well giving a final DMSO concentration of 0.5% per well and a total volume of 250 μl per well. The treated cells were incubated for 144 hours (6 days) at 37° C., 5% CO2. Following compound treatment, the remaining viable cells were detected using the Promega CellTiter-Glo 2.0 assay as follows: 150 μl of media was removed from each of the wells to be assayed and 100 μl of room temperature CellTiter-Glo 2.0 reagent was added. The plate was placed on an orbital shaker at 500 rpm at room temperature for 2 minutes, and then incubated without shaking for a further 10 minutes at room temperature. 150 μl of cell lysate was removed from each well and dispensed into a single well of a white opaque 96 well plate. Luminescence at 545 nm was read using a BMG CLARIOstar plate reader. The luminescent signal was directly proportional to number of viable cells, the percent of viable cells relative to the DMSO control was then calculated for each assay point. Percent viability relative to DMSO control was plotted against compound concentration and a curve fitted with non-linear regression in GraphPad Prism software. EC50 and absolute IC50 values were calculated using GraphPad Prism software as follows: For EC50 values a non-constrained four-parameter logistic curve fit was used (Sigmoidal, 4PL, X is concentration). For Absolute IC50 values the baseline was constrained to Y=0 and top at 100 (Absolute IC50, X is concentration). Area Under the Curve (AUC): Prism computes area-under-the-curve by the trapezoidal method. The analysis sees a fitted curve as simply a series of connected XY points. Prism simply computes the area under the “curve” defined by connecting the points by straight lines. The units of the AUC are the units of the Y axis times units of the X axis.
(§1) For EC50 data, the symbol “A” indicates a value of less than 0.2 μM; the symbol “B” indicates a value in the range of from 0.2 μM up to 1 μM; and the symbol “C” indicates a value of greater than 1 μM.

SDM103T2 cells = assay: SDM103T2 proliferation and cell viability assay (CTG); settings: 144 hours
Description: SDM103T2 cells were trypsinised, counted and plated at 800 cells/well in 200 μl of growth media in 96 well flat bottom tissue culture treated plates. The plated cells were incubated overnight at 37° C., 5% CO2 before being treated with compounds in triplicate for each assay point. 50 μl of the serially diluted compound was added to each well giving a final DMSO concentration of 0.5% per well and a total volume of 250 μl per well. The treated cells were incubated for 144 hours (6 days) at 37° C., 5% CO2. Following compound treatment the remaining viable cells were detected using the Promega CellTiter-Glo 2.0 assay as follows: 150 μl of media was removed from each of the wells to be assayed and 100 μl of room temperature CellTiter-Glo 2.0 reagent was added. The plate was placed on an orbital shaker at 500 rpm at room temperature for 2 minutes, and then incubated without shaking for a further 10 minutes at room temperature. 150 μl of cell lysate was removed from each well and dispensed into a single well of a white opaque 96 well plate. Luminescence at 545 nm was read using a BMG CLARIOstar plate reader. The luminescent signal was directly proportional to number of viable cells, the percent of viable cells relative to the DMSO control was then calculated for each assay point. Percent viability relative to DMSO control was plotted against compound concentration and a curve fitted with non-linear regression in GraphPad Prism software. EC50 and absolute IC50 values were calculated using GraphPad Prism software as follows: For EC50 values a non-constrained four-parameter logistic curve fit was used (Sigmoidal, 4PL, X is concentration). For Absolute IC50 values the baseline was constrained to Y=0 and top at 100 (Absolute IC50, X is concentration). Area Under the Curve (AUC): Prism computes area-under-the-curve by the trapezoidal method. The analysis sees a fitted curve as simply a series of connected XY points. Prism simply computes the area under the “curve” defined by connecting the points by straight lines. The units of the AUC are the units of the Y axis times units of the X axis.
as §1

| Compound | EC50 (LOU-NH91 cells) [µM] | EC50 (MSTO-211H cells) [µM] | EC50 (SDM103T2 cells) [µM] |
| --- | --- | --- | --- |
| Cn1cnc(-c2cc([C@@]3(C)CCNC3=O)ccc2Nc2ccc(C(F)(F)F)cc2)c1 (single isomer, unassigned) [Compound 5, 3-methyl-3-(3-(1-methyl-1H-imidazol-4-yl)-4-((4-(trifluoromethyl)phenyl)amino)phenyl)pyrrolidin-2-one] | < 0.2 | < 0.2 | < 0.2 |
| Cn1nnc(-c2cc([C@]3(C)CCNC3=O)ccc2Nc2ccc(C(F)(F)F)cc2)n1 (stereo in doubt) [Compound 20, 3-methyl-3-(3-(2-methyl-2H-tetrazol-5-yl)-4-((4-(trifluoromethyl)phenyl)amino)phenyl) pyrrolidin-2-one] | – | < 0.2 | < 0.2 |
| C=CC(=O)Nc1ccc(C)c(Oc2ccc(Cl)cc2)c1 [Compound 1-3, reference compound] | < 0.2 | < 0.2 | < 0.2 |
| FC(F)(F)c1ccc(CN2CCC(C3CC(Br)=NO3)CC2)cc1 (stereo not shown) [Compound 1-2, reference compound] | < 0.2 | < 0.2 | > 1 |
| Cn1cnc(-c2cc(C3(C)NC(=O)NC3=O)ccc2Nc2ccc(C(F)(F)F)cc2)c1 (single isomer, unassigned) [Compound 15, 5-methyl-5-(3-(1-methyl-1H-imidazol-4-yl)-4-((4-(trifluoromethyl)phenyl)amino)phenyl)imidazolidine-2,4-dione] | – | < 0.2 | < 0.2 |
